# Test results from PubChem BioAssay (NCI).
#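 Assay format: 96-well plates, 48-hour exposure. GI50: concentration for 50% inhibition of growth. Definition used: TGI = concentration required for complete inhibition of growth.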
# Key:
# Assay in all cases: growth of human tumour cells (NCI), 48 h
# PC-3 prostate = test system: PC-3 prostate
# T-47D breast = test system: T-47D breast
# NCI-H460 lung = test system: NCI-H460 lung
# HCT-116 colon = test system: HCT-116 colon
# MCF7 breast = test system: MCF7 breast
# M14 melanoma = test system: M14 melanoma
# MDA-MB-231 breast = test system: MDA-MB-231 breast
# OVCAR-4 ovarian = test system: OVCAR-4 ovarian
# A498 renal = test system: A498 renal
# SW-620 colon = test system: SW-620 colon
# SK-MEL-28 melanoma = test system: SK-MEL-28 melanoma
# UACC-257 melanoma = test system: UACC-257 melanoma
# RXF 393 renal = test system: RXF 393 renal
# UO-31 renal = test system: UO-31 renal
# CAKI-1 renal = test system: CAKI-1 renal
# SNB-19 CNS = test system: SNB-19 CNS
# 786-0 renal = test system: 786-0 renal
# KM12 colon = test system: KM12 colon
# HOP-62 NSCLC = test system: HOP-62 NSCLC
# A549 NSCLC = test system: A549 NSCLC
# HL-60(TB) leukemia = test system: HL-60(TB) leukemia
# ACHN renal = test system: ACHN renal
# SR leukemia = test system: SR leukemia
# EKVX NSCLC = test system: EKVX NSCLC
# COLO 205 colon = test system: COLO 205 colon
# SNB-75 CNS = test system: SNB-75 CNS
# HCC-2998 colon = test system: HCC-2998 colon
# SK-MEL-2 melanoma = test system: SK-MEL-2 melanoma
# HT29 colon = test system: HT29 colon
# SN12C renal = test system: SN12C renal
# IGROV1 ovarian = test system: IGROV1 ovarian
# OVCAR-5 ovarian = test system: OVCAR-5 ovarian
# SF-295 CNS = test system: SF-295 CNS
# NCI-H226 lung = test system: NCI-H226 lung
# OVCAR-3 ovarian = test system: OVCAR-3 ovarian
# SK-OV-3 ovarian = test system: SK-OV-3 ovarian
# UACC-62 melanoma = test system: UACC-62 melanoma
# LOX IMVI melanoma = test system: LOX IMVI melanoma
# SK-MEL-5 melanoma = test system: SK-MEL-5 melanoma
# DU-145 prostate = test system: DU-145 prostate
# NCI-H522 lung = test system: NCI-H522 lung
# NCI/ADR-RES ovarian = test system: NCI/ADR-RES ovarian
# NCI-H23 lung = test system: NCI-H23 lung
# MOLT-4 leukemia = test system: MOLT-4 leukemia
# SF-539 CNS = test system: SF-539 CNS
# HOP-92 NSCLC = test system: HOP-92 NSCLC
# HCT-15 colon = test system: HCT-15 colon
# CCRF-CEM leukemia = test system: CCRF-CEM leukemia
# MALME-3M melanoma = test system: MALME-3M melanoma
# U251 CNS = test system: U251 CNS
# TK-10 renal = test system: TK-10 renal
# OVCAR-8 ovarian = test system: OVCAR-8 ovarian
# HS 578T breast = test system: HS 578T breast
# SF-268 CNS = test system: SF-268 CNS
# MDA-MB-435 = test system: MDA-MB-435
# K-562 leukemia = test system: K-562 leukemia
# RPMI-8226 leukemia = test system: RPMI-8226 leukemia
# BT-549 breast = test system: BT-549 breast
# MDA-N = test system: MDA-N
smiles,measurement,setting,value
CCN(CC)c1ccc(/C=N\NC(=O)c2cccc(Nc3ccnc(C(F)(F)F)c3)c2)c(O)c1,GI50,PC-3 prostate,646 nM
same,TGI,PC-3 prostate,> 100000 nM
same,GI50,T-47D breast,485 nM
same,TGI,T-47D breast,> 100000 nM
same,GI50,NCI-H460 lung,199 nM
same,TGI,NCI-H460 lung,2240 nM
same,GI50,HCT-116 colon,121 nM
same,TGI,HCT-116 colon,31000 nM
same,GI50,MCF7 breast,296 nM
same,TGI,MCF7 breast,> 100000 nM
same,GI50,M14 melanoma,217 nM
same,TGI,M14 melanoma,1430 nM
same,GI50,MDA-MB-231 breast,345 nM
same,TGI,MDA-MB-231 breast,> 43100 nM
same,GI50,OVCAR-4 ovarian,118 nM
same,TGI,OVCAR-4 ovarian,> 100000 nM
same,GI50,A498 renal,541 nM
same,TGI,A498 renal,17000 nM
same,GI50,SW-620 colon,366 nM
same,TGI,SW-620 colon,> 100000 nM
same,GI50,SK-MEL-28 melanoma,191 nM
same,TGI,SK-MEL-28 melanoma,> 20800 nM
same,GI50,UACC-257 melanoma,373 nM
same,GI50,RXF 393 renal,216 nM
same,TGI,RXF 393 renal,1900 nM
same,GI50,UO-31 renal,202 nM
same,TGI,UO-31 renal,2690 nM
same,GI50,CAKI-1 renal,182 nM
same,TGI,CAKI-1 renal,496 nM
same,GI50,SNB-19 CNS,418 nM
same,TGI,SNB-19 CNS,> 100000 nM
same,GI50,786-0 renal,270 nM
same,TGI,786-0 renal,885 nM
same,GI50,KM12 colon,342 nM
same,TGI,KM12 colon,> 100000 nM
same,GI50,HOP-62 NSCLC,184 nM
same,TGI,HOP-62 NSCLC,1960 nM
same,GI50,A549 NSCLC,587 nM
same,TGI,A549 NSCLC,> 100000 nM
same,GI50,HL-60(TB) leukemia,299 nM
same,TGI,HL-60(TB) leukemia,1050 nM
same,GI50,ACHN renal,218 nM
same,TGI,ACHN renal,> 40400 nM
same,GI50,SR leukemia,96.7 nM
same,TGI,SR leukemia,736 nM
same,GI50,EKVX NSCLC,219 nM
same,TGI,EKVX NSCLC,3800 nM
same,GI50,COLO 205 colon,327 nM
same,TGI,COLO 205 colon,2580 nM
same,GI50,SNB-75 CNS,253 nM
same,TGI,SNB-75 CNS,7440 nM
same,GI50,HCC-2998 colon,278 nM
same,TGI,HCC-2998 colon,8760 nM
same,GI50,SK-MEL-2 melanoma,893 nM
same,TGI,SK-MEL-2 melanoma,> 41200 nM
same,GI50,HT29 colon,301 nM
same,TGI,HT29 colon,7260 nM
same,GI50,SN12C renal,278 nM
same,TGI,SN12C renal,> 36500 nM
same,GI50,IGROV1 ovarian,143 nM
same,GI50,OVCAR-5 ovarian,408 nM
same,TGI,OVCAR-5 ovarian,> 39300 nM
same,GI50,SF-295 CNS,312 nM
same,TGI,SF-295 CNS,2470 nM
same,GI50,NCI-H226 lung,311 nM
same,TGI,NCI-H226 lung,3480 nM
same,GI50,OVCAR-3 ovarian,271 nM
same,TGI,OVCAR-3 ovarian,> 100000 nM
same,GI50,SK-OV-3 ovarian,499 nM
same,TGI,SK-OV-3 ovarian,> 100000 nM
same,GI50,UACC-62 melanoma,250 nM
same,TGI,UACC-62 melanoma,1680 nM
same,GI50,LOX IMVI melanoma,133 nM
same,TGI,LOX IMVI melanoma,2220 nM
same,GI50,SK-MEL-5 melanoma,242 nM
same,TGI,SK-MEL-5 melanoma,883 nM
same,GI50,DU-145 prostate,159 nM
same,TGI,DU-145 prostate,> 100000 nM
same,GI50,NCI-H522 lung,393 nM
same,TGI,NCI-H522 lung,15700 nM
same,GI50,NCI/ADR-RES ovarian,765 nM
same,TGI,NCI/ADR-RES ovarian,> 28100 nM
same,GI50,NCI-H23 lung,575 nM
same,TGI,NCI-H23 lung,> 100000 nM
same,GI50,MOLT-4 leukemia,126 nM
same,TGI,MOLT-4 leukemia,1490 nM
same,GI50,SF-539 CNS,279 nM
same,TGI,SF-539 CNS,1450 nM
same,GI50,HOP-92 NSCLC,1350 nM
same,TGI,HOP-92 NSCLC,> 100000 nM
same,GI50,HCT-15 colon,123 nM
same,TGI,HCT-15 colon,> 100000 nM
same,GI50,CCRF-CEM leukemia,84 nM
same,TGI,CCRF-CEM leukemia,1270 nM
same,GI50,MALME-3M melanoma,348 nM
same,TGI,MALME-3M melanoma,4320 nM
same,GI50,U251 CNS,183 nM
same,TGI,U251 CNS,> 37500 nM
same,GI50,TK-10 renal,371 nM
same,TGI,TK-10 renal,> 100000 nM
same,GI50,OVCAR-8 ovarian,342 nM
same,TGI,OVCAR-8 ovarian,> 100000 nM
same,GI50,HS 578T breast,374 nM
same,TGI,HS 578T breast,11600 nM
same,GI50,SF-268 CNS,83 nM
same,TGI,SF-268 CNS,> 27300 nM
same,GI50,MDA-MB-435,412 nM
same,TGI,MDA-MB-435,> 24100 nM
same,GI50,K-562 leukemia,374 nM
same,TGI,K-562 leukemia,> 100000 nM
same,GI50,RPMI-8226 leukemia,152 nM
same,TGI,RPMI-8226 leukemia,2200 nM
same,GI50,BT-549 breast,427 nM
same,TGI,BT-549 breast,> 65100 nM
O=C1C(=O)C(CCCO)(CCCO)CCCCCCCCC1(CCCO)CCCO,TGI,PC-3 prostate,> 100000 nM
same,TGI,T-47D breast,> 100000 nM
same,TGI,NCI-H460 lung,> 100000 nM
same,TGI,HCT-116 colon,> 100000 nM
same,TGI,MDA-N,> 100000 nM
same,TGI,MCF7 breast,> 100000 nM
same,TGI,M14 melanoma,> 100000 nM
same,TGI,OVCAR-4 ovarian,> 100000 nM
same,TGI,A498 renal,> 100000 nM
same,TGI,SW-620 colon,> 100000 nM
same,TGI,SK-MEL-28 melanoma,> 100000 nM
same,TGI,UACC-257 melanoma,> 100000 nM
same,TGI,RXF 393 renal,68800 nM
same,TGI,UO-31 renal,60400 nM
same,TGI,CAKI-1 renal,> 100000 nM
same,TGI,SNB-19 CNS,> 100000 nM
same,TGI,786-0 renal,> 100000 nM
same,TGI,KM12 colon,> 100000 nM
same,TGI,HOP-62 NSCLC,> 100000 nM
same,TGI,A549 NSCLC,> 100000 nM
same,TGI,HL-60(TB) leukemia,29900 nM
same,TGI,ACHN renal,> 100000 nM
same,TGI,SR leukemia,> 100000 nM
same,TGI,EKVX NSCLC,> 100000 nM
same,TGI,COLO 205 colon,> 100000 nM
same,TGI,SNB-75 CNS,> 100000 nM
same,TGI,HCC-2998 colon,> 100000 nM
same,TGI,SK-MEL-2 melanoma,> 100000 nM
same,TGI,HT29 colon,> 100000 nM
same,TGI,SN12C renal,> 100000 nM
same,TGI,IGROV1 ovarian,> 100000 nM
same,TGI,OVCAR-5 ovarian,> 100000 nM
same,TGI,SF-295 CNS,> 100000 nM
same,TGI,NCI-H226 lung,> 100000 nM
same,TGI,OVCAR-3 ovarian,> 100000 nM
same,TGI,SK-OV-3 ovarian,> 100000 nM
same,TGI,UACC-62 melanoma,> 100000 nM
same,TGI,LOX IMVI melanoma,> 100000 nM
same,TGI,SK-MEL-5 melanoma,> 100000 nM
same,TGI,DU-145 prostate,> 100000 nM
same,TGI,NCI-H522 lung,> 100000 nM
same,TGI,NCI/ADR-RES ovarian,> 100000 nM
same,TGI,NCI-H23 lung,> 100000 nM
same,TGI,SF-539 CNS,> 100000 nM
same,TGI,HOP-92 NSCLC,> 100000 nM
same,TGI,HCT-15 colon,> 100000 nM
same,TGI,MALME-3M melanoma,> 100000 nM
same,TGI,U251 CNS,> 100000 nM
same,TGI,TK-10 renal,> 100000 nM
same,TGI,OVCAR-8 ovarian,> 100000 nM
same,TGI,HS 578T breast,> 100000 nM
same,TGI,SF-268 CNS,> 100000 nM
same,TGI,MDA-MB-435,> 100000 nM
same,TGI,K-562 leukemia,69600 nM
same,TGI,RPMI-8226 leukemia,32000 nM
